In publication PMC8307404, “Crystal Structure-Guided Design of Bisubstrate Inhibitors and Photoluminescent Probes for Protein Kinases of the PIM Family” (Molecules, 2021):
Where “and” joins values, the source holds several entries; their conditions need not be identical. Identical values can stand only once. Square brackets hold non-standard residues; d marks the D form. Peptide text beside a SMILES is read from it. * marks the point of attachment. X7 = Nc1nccc(-c2ccc(C(=O)*)s2)n1; Ahx = NCCCCCC(=O)O

Legend:
PKAcα = target: T1, PKAcα (Homo sapiens, UniProt P17612); assay: Binding/displacement assay with FA or TGLI readout; conditions: TGLI or FA readout; mean ± SEM, N = 2; read-out: KD, nM (PKAcα)
T1 construct: purchased Biaffin GmbH & Co KG (Kassel, Germany)
Method: The affinities of the compounds toward the PIM family PKs were determined in a binding/displacement assay with measurement of fluorescence anisotropy (FA) and time-gated luminescence intensity (TGLI) (Table 2). For the initial assessment of the selectivity of compounds, PKAcα was used as the reference basophilic kinase.
Optical FA measurement modules for 5-TAMRA-labeled compounds (ex. 540(20) nm, em. 590(20) nm and 590(20) nm), for Cy5-labeled compounds (ex. 590(50) nm, em. 675(50) nm and 675(50) nm), and optical TGLI measurement modules for ARC-1451 (ex. 330(60) nm, em. 590(50) nm), for ARC-1188 (ex. 330(60) nm, em. 675(50) nm) were used for assays with PHERAstar microplate reader (BMG Labtech; Ortenberg, Germany). TGLI measurements were performed with a delay time of 50 μs and integration of the signal for 150 μs. In each measurement, emission from 200 flashes of excitation radiation was collected. The measurement solutions (20 µL volumes) were prepared in black 384-well low-binding surface microtiter plates (Corning #4514; Kennebunk, ME, USA) and incubated for 20 min at 30 °C before the measurements. The assay buffer contained HEPES hemisodium salt (pH 7.4, 50 mM), NaCl (150 mM), dithiothreitol (5 mM), bovine serum albumin (0.5 mg/mL), and Tween-20 (0.005%). GraphPad Prism v. 5.04 (GraphPad Software, Inc.) was used for data analysis with FA [32] or TGLI [33] readouts. Representative titration curves can be found in Supplementary Figure S7.

PIM1 [1] = target: T2, PIM1 (Homo sapiens, UniProt P11309); assay: Binding/displacement assay with FA or TGLI readout; parameters: made in house
Method: (§1) The affinities of the compounds toward the PIM family PKs were determined in a binding/displacement assay with measurement of fluorescence anisotropy (FA) and time-gated luminescence intensity (TGLI) (Table 2). For the initial assessment of the selectivity of compounds, PKAcα was used as the reference basophilic kinase [10].
(§2) Optical FA measurement modules for 5-TAMRA-labeled compounds (ex. 540(20) nm, em. 590(20) nm and 590(20) nm), for Cy5-labeled compounds (ex. 590(50) nm, em. 675(50) nm and 675(50) nm), and optical TGLI measurement modules for ARC-1451 (ex. 330(60) nm, em. 590(50) nm), for ARC-1188 (ex. 330(60) nm, em. 675(50) nm) were used for assays with PHERAstar microplate reader (BMG Labtech; Ortenberg, Germany). TGLI measurements were performed with a delay time of 50 μs and integration of the signal for 150 μs. In each measurement, emission from 200 flashes of excitation radiation was collected. The measurement solutions (20 µL volumes) were prepared in black 384-well low-binding surface microtiter plates (Corning #4514; Kennebunk, ME, USA) and incubated for 20 min at 30 °C before the measurements. The assay buffer contained HEPES hemisodium salt (pH 7.4, 50 mM), NaCl (150 mM), dithiothreitol (5 mM), bovine serum albumin (0.5 mg/mL), and Tween-20 (0.005%). […] 5.04 (GraphPad Software, Inc.) was used for data analysis with FA [32] or TGLI [33] readouts.

PIM2 [2] = target: T3, PIM2 (Homo sapiens, UniProt Q9P1W9); assay: Binding/displacement assay with FA or TGLI readout; parameters: made in house; conditions: mean ± SEM, N = 2
Method: as §1, §2

PIM3 [3] = target: T4, PIM3 (Homo sapiens, UniProt Q86V86); assay: Binding/displacement assay with FA or TGLI readout; parameters: made in house; conditions: mean ± SEM, N = 2
Method: as §1, §2

PIM1 [4] = target: T2, PIM1; assay: Thermal shift assay; format: binding; parameters: made in house; conditions: 2 μM kinase, 12.5 μM compound; mean ± SEM, N = 2
Method: (§3) Thermal shift assay measurements were performed following the previously published protocol [61] using a real-time PCR instrument (Mx3005p RT-PCR, Stratagene; La Jolla, California). […] The measurements were carried out in PCR low-profile microplate wells (ABgene; Portsmouth, NH, USA). The temperature scan was run from 25 to 95 °C at 1 °C/min. GraphPad Prism v. 6.0 (GraphPad Software, Inc.; San Diego, CA, USA) and Microsoft Excel v. 2007 (Microsoft Office; Redmond, WA, USA) were used for data processing and analysis.

PIM3 [5] = target: T4, PIM3; assay: Thermal shift assay; format: binding; parameters: made in house; conditions: 2 μM kinase, 12.5 μM compound; mean ± SEM, N = 2
Method: as §3

PIM2 [6] = target: T3, PIM2; assay: Thermal shift assay; format: binding; parameters: made in house; conditions: 2 μM kinase, 12.5 μM compound; mean ± SEM, N = 2
Method: as §3

U2OS cells = assay: Cellular uptake of fluorescent probes, live-cell microscopy; format: cell-based, human; conditions: 1–5 μM, 10–60 min
Method: For studies of the general internalization properties of ARCs, the cells were seeded at the density of 12,000–25,000 cells per well onto an Ibidi μ-plate (96-well; Ibidi GmbH, Planegg, Germany). After 24 h incubation in growth medium, the cells were treated for 10 min, 30 min, or 1 h with dilutions of compounds 6, 7, 8, or ARC-2090 (5 μM, 2.5 μM, or 1 μM final concentration) in the phenol red-free DMEM/Ham’s F12 medium supplemented with 2% ccFBS and 2 mM glutamine. Next, cells were washed twice with PBS, and imaging medium (MEMO + Supplement A 1:100) was applied subsequently. Cells were imaged with Cytation 5 wide-field microscope (BioTek; Winooski, VT, USA) using 20× air objective and the following settings: for Cy5, 623 nm LED (intensity: 2) and Cy5 filter cube (685 nm) with 104 ms integration time and detector gain value of 2; for TAMRA, 523 nm LED (intensity: 7) and RFP filter cube (593 nm) with 252 ms integration time and detector gain value of 16; for bright-field, white LED with intensity 6, 186 ms integration time and detector gain value of 15. Four independent experiments were performed.

PIM-1-TagRFP = target: T5, PIM-1-TagRFP (Homo sapiens, UniProt P11309); assay: Co-localization study, TIRF microscopy; format: cell-based; conditions: live U2OS cells, 48 h transfection, 1 h incubation with 2.5 or 5 μM probe
T5 construct: expressed in transfected cells; host or cells: U2OS (human osteosarcoma), transient, 48 h, FuGENE HD

endoprotease furin = target: endoprotease furin; parameters: method as in PMID 26110264; conditions: cited from earlier work
[7] = KD, nM (PIM-1), TGLI or FA readout, mean ± SEM, N = 2

T3 sequence (Q9P1W9 whole entry): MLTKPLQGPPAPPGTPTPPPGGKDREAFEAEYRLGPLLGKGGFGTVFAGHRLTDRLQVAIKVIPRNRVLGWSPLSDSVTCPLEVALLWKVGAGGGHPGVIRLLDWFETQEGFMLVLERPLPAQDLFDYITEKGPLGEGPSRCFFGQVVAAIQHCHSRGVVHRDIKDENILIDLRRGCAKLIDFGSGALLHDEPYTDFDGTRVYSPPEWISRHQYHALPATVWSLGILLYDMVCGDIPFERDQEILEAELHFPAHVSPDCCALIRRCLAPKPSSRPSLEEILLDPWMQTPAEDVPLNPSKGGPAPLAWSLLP
T2 sequence (P11309 whole entry): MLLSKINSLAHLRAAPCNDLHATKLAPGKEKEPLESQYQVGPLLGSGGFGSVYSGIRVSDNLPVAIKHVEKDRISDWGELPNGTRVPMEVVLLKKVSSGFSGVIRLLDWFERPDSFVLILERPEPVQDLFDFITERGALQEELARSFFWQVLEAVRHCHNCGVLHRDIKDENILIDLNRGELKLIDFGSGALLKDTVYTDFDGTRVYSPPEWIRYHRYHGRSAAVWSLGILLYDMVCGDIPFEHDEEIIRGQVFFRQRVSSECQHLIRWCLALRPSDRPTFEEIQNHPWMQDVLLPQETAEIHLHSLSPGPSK
T5 sequence (P11309 whole entry): as above

Row | Compound | Kd (PKAcα) [nM] | Kd (PIM1 [1]; [7]) [nM] | Kd (PIM2 [2]) [nM] | Kd (PIM3 [3]) [nM] | other results
1 | N[C@@H]1CCCN(c2c(/C=C3\SC(=O)NC3=O)cccc2-c2ccccc2)C1 [AZD1208, reference compound] | > 83000 |  |  |  | 
2 | N=C(N)NCCC[C@@H](N)C(=O)N[C@H](CCCNC(=N)N)C(=O)NCC(=O)N[C@H](CCCNC(=N)N)C(=O)N[C@H](CCCCN)C(N)=O [PIM peptide, (D-Arg)2-Gly-D-Arg-D-Lys-NH2] | > 89000 | > 11500 | > 46000 | > 16400 | Kd (PIM1 [1]; KD toward PIM-1, as worded in text): > 10000 nM
3 | BBTP-Hyp-Ahx-(D-Arg)9-D-Lys-NH2 [ARC-3119] |  |  |  |  | ∆Tm, °C PIM-1 (PIM1 [4]): 13.7 ± 0.4 °C; ∆Tm, °C PIM-3 (PIM3 [5]): 11.9 ± 0.2 °C; ∆Tm, °C PIM-2 (PIM2 [6]): 13.9 ± 0.6 °C
4 | CN1C(=CC=CC=CC2=[N+](CCCCCC(=O)NCCCC[C@@H](NC(=O)[C@@H](CCCNC(=N)N)NC(=O)CNC(=O)[C@@H](CCCNC(=N)N)NC(=O)[C@@H](CCCNC(=N)N)NC(=O)CCCCc3cn(Cc4nc5c(sc6ccc(Br)cc65)c(=O)[nH]4)nn3)C(N)=O)c3ccccc3C2(C)C)C(C)(C)c2ccccc21 [Compound 7, BBTP-Tap-(D-Arg)2-Gly-D-Arg-[D-Lys(Cy5)]-NH2] | > 1080 | 21.9 ± 4 | 28.2 ± 6.7 | 8.3 ± 1 | ability to cross the plasma membrane / internalization (U2OS cells): efficiently internalized into the cells; Manders' coefficient, co-localization with PIM-1-TagRFP (PIM-1-TagRFP): 0.43 ± 0.16
5 | C[C@@H](NC(=O)CCCCCNC(=O)c1ccc(-c2ccnc(N)n2)s1)C(=O)N[C@H](CCCNC(=N)N)C(=O)N[C@H](CCCNC(=N)N)C(=O)N[C@H](CCCNC(=N)N)C(=O)N[C@H](CCCNC(=N)N)C(=O)N[C@H](CCCNC(=N)N)C(=O)N[C@H](CCCNC(=N)N)C(=O)N[C@H](CCCCN)C(=O)NCC(=O)O [ARC-1141, AMTH-Ahx-D-Ala-(D-Arg)6-D-Lys-Gly] ({X7-Ahx}-[dA][dR][dR][dR][dR][dR][dR][dK]G-OH) |  |  |  |  | ∆Tm, °C PIM-1 (PIM1 [4]): 5.2 ± 0.4 °C; ∆Tm, °C PIM-3 (PIM3 [5]): 4.9 ± 0.4 °C; ∆Tm, °C PIM-2 (PIM2 [6]): 5.9 ± 0.6 °C
6 | (D-Arg)9-NH2 |  |  |  |  | Kd (endoprotease furin): 1.3 nM
7 | (D-Arg)6-NH2 |  |  |  |  | Kd (endoprotease furin): 106 nM
8 | N=C(N)NCCC[C@@H](NC(=O)CNC(=O)[C@@H](CCCNC(=N)N)NC(=O)[C@@H](CCCNC(=N)N)NC(=O)CCCCc1cn(Cc2nc3c(sc4ccc(Br)cc43)c(=O)[nH]2)nn1)C(=O)N[C@H](CCCCN)C(N)=O [Compound 4, BBTP-Tap-(D-Arg)2-Gly-D-Arg-D-Lys-NH2] | > 18200 | 1.8 ± 0.3 | 20 ± 4 | 6.6 ± 1.4 | fold higher selectivity as compared to compound 3 (PIM1 [1]; PIM-1 vs PKAcα): over 5 fold
9 | N=C(N)NCCC[C@@H](NC(=O)CNC(=O)[C@@H](CCCNC(=N)N)NC(=O)[C@@H](CCCNC(=N)N)NC(=O)CCCCCCCNC(=O)[C@@H]1C[C@@H](O)CN1Cc1nc2c(sc3ccc(Br)cc32)c(=O)[nH]1)C(=O)N[C@H](CCCCN)C(N)=O [Compound 5, BBTP-Hyp-Aoc-(D-Arg)2-Gly-D-Arg-D-Lys-NH2] | > 20600 | 37.8 ± 9 | 447 ± 52 | 30.4 ± 6.5 | fold lower selectivity toward PIM-1 than compound 2 (PIM1 [1]; PIM-1 vs PKAcα): over 4 fold
10 | CN1C(=CC=CC=CC2=[N+](CCCCCC(=O)NCCCC[C@@H](NC(=O)[C@@H](CCCNC(=N)N)NC(=O)CNC(=O)[C@@H](CCCNC(=N)N)NC(=O)[C@@H](CCCNC(=N)N)NC(=O)CCCCCCCNCc3nc4c(sc5ccc(Br)cc54)c(=O)[nH]3)C(N)=O)c3ccccc3C2(C)C)C(C)(C)c2ccccc21 [Compound 6, BBTP-Aoc-(D-Arg)2-Gly-D-Arg-[D-Lys(Cy5)]-NH2] | > 303 | 1.7 ± 0.4 | 5.2 ± 0.9 | 2.6 ± 0.3 | ability to cross the plasma membrane / internalization (U2OS cells): efficiently internalized into the cells; Manders' coefficient, co-localization with PIM-1-TagRFP (PIM-1-TagRFP): 0.72 ± 0.06
11 | CN1CCC(CNc2ccc3ncc(-c4cccc(OC(F)(F)F)c4)n3n2)CC1 [SGI-1776, reference compound] |  |  |  |  | ∆Tm, °C PIM-1 (PIM1 [4]): 9.5 °C and 9.5 ± 0.4 °C; ∆Tm, °C PIM-3 (PIM3 [5]): 8.2 ± 0.3 °C; ∆Tm, °C PIM-2 (PIM2 [6]): 8.1 ± 0.6 °C
